Laboratory results reported in US20210161890A1, “COMPOSITIONS AND METHODS FOR TREATING BRAIN DYSFUNCTION” (BACH PHARMA, INC., priority 2015, published 2021).
Counter-ions that a name gives are not always drawn. Like-named read-outs stand apart in the source and are kept apart here.

Legend:
[1] = test system: GWI rats; settings: for pattern separation ability (exploration of novel vs familiar object on P2): GWI rats
Description: The animals were then treated 5 times a week with 5-amino-2,3-dihydro-1,4-phthalazinedione or VEH for 8 weeks. […] The animals are then subjected to cognitive and mood function tests starting from the fifth week of treatment.
(§1) Administration of 5-amino-2,3-dihydro-1,4-phthalazinedione or VEH: Treatment was given for 8 weeks (5 times/week) via oral gavage, commencing in the 5th month after exposure to GMIR chemicals and stress. The doses of 5-amino-2,3-dihydro-1,4-phthalazinedione employed were 40 mg/kg, 80 mg/kg and 160 mg/kg.
(§2) Behavioral tests for assessing cognitive and mood function: We examined animals in all groups through stress-free behavioral tests. We used a Pattern Separation Test (PST) to assess cognitive function and a Sucrose Preference Test (SPT) to assess mood function.
In this test, each rat successively explored two different sets of identical objects (object types 1 and 2) placed on distinct types of floor patterns (Patterns 1 and 2 [P1 and P2]) for 5 minutes each in the two acquisition trials (separated by 30 minutes). Thirty minutes later, in the testing phase (Trial-3), each rat explored an object from trial 2 (which is now a familiar object) and an object from Trial-1 (which is now a novel object) placed on the floor pattern employed in trial 2 (P2).
FIGS. 1B-1F compare percentages of object exploration time spent with the familiar object on pattern 2 (Fa on P2) and the novel object on pattern 2 (NO of P2) in different animal groups (n=11-14/group).

[2] = test system: GWI rats; settings: hippocampal tissue extracts
Description: (§3) Time-line of various procedures for animals in cohorts 1 and 2: Animals were exposed daily to GWIR-chemicals and stress for 28 days, and were subjected to a survival period of 4 months between exposure and treatment. The animals were then treated 5 times a week with 5-amino-2,3-dihydro-1,4-phthalazinedione or VEH for 8 weeks. […] Finally, euthanasia and tissue harvesting was performed after 8 weeks of treatment.
(§4) Exposure of animals to GWIR-chemicals and stress: Animals were exposed daily to the following chemicals for 28 days: pyridostigmine bromide (PB) at 2 mg/kg/day (via oral gavage), DEET at 60 mg/kg/day (via dermal application) and permethrin at 0.2 mg/kg/day (via dermal application). In addition, animals were subjected daily to 15 minutes of restraint stress using rat restrainers during the above 28-day period.
Survival period between exposure and treatment: Following the exposure to GMIR chemicals and stress, animals were maintained in the vivarium for four months in regular cages (two per cage) with ad libitum access to food and water. […]
Analyses of oxidative stress: The hippocampal tissues obtained from animals belonging to cohort 1 were used for the following measurements. […] Second, we measured lipid peroxidation through quantification of malondialdehyde. […]

[3] = test system: GWI rats
Description: Time-line of various procedures for animals in cohorts 1 and 2: Animals were exposed daily to GWIR-chemicals and stress for 28 days, and were subjected to a survival period of 4 months between exposure and treatment. The animals were then treated 5 times a week with 5-amino-2,3-dihydro-1,4-phthalazinedione or VEH for 8 weeks. […] The animals are then subjected to cognitive and mood function tests starting from the fifth week of treatment. Finally, euthanasia and tissue harvesting was performed after 8 weeks of treatment.
as §4
(§5) Survival period between exposure and treatment: Following the exposure to GMIR chemicals and stress, animals were maintained in the vivarium for four months in regular cages (two per cage) with ad libitum access to food and water. Administration of 5-amino-2,3-dihydro-1,4-phthalazinedione or VEH: Treatment was given for 8 weeks (5 times/week) via oral gavage, commencing in the 5th month after exposure to GMIR chemicals and stress. The doses of 5-amino-2,3-dihydro-1,4-phthalazinedione employed were 40 mg/kg, 80 mg/kg and 160 mg/kg.
as §2
This test comprised four days of monitoring. On day 1, rats were housed individually and given free access to two identical bottles containing 1% sucrose solution. Rats were trained to adapt to sucrose solution for 24 hours. On day 2, one bottle was replaced with a new bottle containing regular water for 24 hours. On day 3, rats were deprived of water and food for 23 hours, and then on day 4, rats were given free access to two bottles: one containing 100 ml of sucrose solution and another containing 100 ml of regular vyater. An hour later, the consumed volume in both bottles was recorded.

[4] = test system: oxidative stress response and antioxidant genes in the hippocampus of GWI rats
Description: The animals were then treated 5 times a week with 5-amino-2,3-dihydro-1,4-phthalazinedione or VEH for 8 weeks. […] Finally, euthanasia and tissue harvesting was performed after 8 weeks of treatment.
as §1
Analyses of oxidative stress: The hippocampal tissues obtained from animals belonging to cohort 1 were used for the following measurements. First, we analyzed the oxidative stress response and the expression of antioxidant genes using the Rat Oxidative Stress Response PCR Array from Qiagen. We analyzed the expression of 84 key genes involved in oxidative stress response and antioxidant activity in the hippocampus of animals belonging to different groups using quantitative real time PCR (qRT-PCR) to ascertain the effects of 5-amino-2,3-dihydro-1,4-phthalazinedione treatment on oxidative stress.
(i) Expression of oxidative stress response and antioxidant genes: We analyzed the expression of 84 key genes involved in oxidative stress response and antioxidant activity in the hippocampus of animals belonging to different groups using quantitative real time PCR (qRTPCR).

[5] = test system: inflammatory cytokines in hippocampal tissues of GWI rats; settings: hippocampal tissue;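 also: relative cytokine levels by 16-cytokine plate array in hippocampus of rats given 28 days of GWI-related chemicals plus restraint stress, treated after a 4-month interval, tissue harvested after 8 weeks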
Description: as §3, §4, §5
Analyses of inflammation: The hippocampal tissues obtained from animals belonging to cohort 1 were also used to measure the relative levels of inflammatory cytokines in different groups of animals. We employed the Rat Cytokine Plate Array from Signosis, which facilitated analyses of 16 rat cytokines in a high-throughput manner. The cytokines included: tumor necrosis factor-alpha (TNF-α), interleukin=1 alpha (IL-1α), interleukin-1 beta (IL-1β), vascular endothelial growth factor (VEGF), fibroblast growth factor beta (FGFβ), interferon gamma (IFNγ), interleukin=5 (IL-5), interleukin=6 (IL-6), interleukin=15 (IL-15), leptin, monocyte chemoattractant protein=1 (MCP-1), IFN-gamma-inducible protein 10 (IP-10 or CXCL10), stem cell factor (SCF), Regulated on Activation, Normal T Cell Expressed and Secreted (Rantes), Macrophage inflammatory protein 1 alpha (MIP-1α) and transforming growth factor-beta (TGFβ).
Analyses of inflammation: The hippocampal tissues obtained from animals were used for measurement of the relative levels of inflammatory cytokines in different groups of animals. We employed “The Rat Cytokine Plate Array” from Signosis, which facilitated analyses of 16 rat cytokines in a high-throughput manner. The cytokines included: TNF-α, IL-1α, IL-1β, VEGF, FGFβ, , IFNγ, IL-5, IL-6, IL-15, leptin, MCP-1, IP-10 (or CXCL10), SCF, Rantes, MIP-1α and TGFβ.

[6] = GWI + MSL 40 mg/Kg, oral gavage 5 times/week for 8 weeks
[7] = column headed GWI + MSL 160 mg/Kg, oral gavage 5 times/week for 8 weeks
[8] = last treatment column, head prints no dose, oral gavage 5 times/week for 8 weeks

SMILES: Nc1cccc2c(=O)[nH][nH]c(=O)c12 [MSL, 5-amino-2,3-dihydro-1,4-phthalazinedione, monosodium salt]
- pattern separation ability (exploration of novel vs familiar object on P2) ([1]; 40 mg/kg oral gavage): remained impaired
- pattern separation ability (exploration of novel vs familiar object on P2) ([1]; 80 mg/kg oral gavage): remained impaired
- pattern separation ability (exploration of novel vs familiar object on P2) ([1]; 160 mg/kg oral gavage): displayed an ability for pattern separation
- total object exploration time between groups in Trial-3 ([1]; GWI rats, 40, 80 and 160 mg/Kg groups vs naive and VEH, one-way ANOVA): did not show ditierences between groups
- MDA concentration ([2]; 40 mg/kg, p<0.05): higher concentration of MDA than naive control rats
- MDA concentration ([2]; 160 mg/kg): reduced MDA concentration than GWI rats receiving VEH
- preference for sucrose-containing water over regular water ([3]; 40 mg/kg oral gavage): remained impaired
- preference for sucrose-containing water over regular water ([3]; 80 mg/kg oral gavage): exhibited a clear preference for drinking sucrose-containing water over regular water
- preference for sucrose-containing water over regular water ([3]; 160 mg/kg oral gavage): exhibited a clear preference for drinking sucrose-containing water over regular water
- total volume (normal water+sucrose-containing water) consumed ([3]; all dose groups vs naive and VEH, one-way ANOVA): did not show differences between groups
- expression of 20 oxidative stress genes increased in GWI rats ([4]; 80 mg/kg): normalized to control levels
- expression of 20 oxidative stress genes increased in GWI rats ([4]; 160 mg/kg): normalized to control levels
- expression of 4 oxidative stress response genes (Prdx6, Sod2, Sqstm1, Srxn1) ([4]; vs GWI rats receiving VEH): completely normalized
- FGF-beta Mean ± S.E.M. [5, 6]: 0.17 ± 0.05
- IFN-gamma Mean ± S.E.M. [5, 6]: 0.19 ± 0.05
- IL-1alpha Mean ± S.E.M. [5, 6]: 0.17 ± 0.05
- IL-1 beta Mean ± S.E.M. [5, 6]: 0.38 ± 0.05
- IL-5 Mean ± S.E.M. [5, 6]: 0.19 ± 0.05
- IL-6 Mean ± S.E.M. [5, 6]: 0.23 ± 0.05
- IL-10 Mean ± S.E.M. [5, 6]: 0.085 ± 0.02
- IL-15 Mean ± S.E.M. [5, 6]: 0.13 ± 0.05
- LEPTIN Mean ± S.E.M. [5, 6]: 0.40 ± 0.05
- MCP-1 Mean ± S.E.M. [5, 6]: 0.09 ± 0.05
- MIP-1 alpha Mean ± S.E.M. [5, 6]: 0.06 ± 0.05
- Rantes (CCL5) Mean ± S.E.M. [5, 6]: 0.15 ± 0.05
- SCF Mean ± S.E.M. [5, 6]: 0.32 ± 0.05
- TNF-alpha Mean ± S.E.M. [5, 6]: 0.15 ± 0.02
- VEGF Mean ± S.E.M. [5, 6]: 0.19 ± 0.05
- FGF-beta [5, 7]: 0.21 ± 0.03
- IFN-gamma [5, 7]: 0.23 ± 0.03
- IL-1alpha [5, 7]: 0.21 ± 0.03
- IL-1 beta [5, 7]: 0.42 ± 0.06
- IL-5 [5, 7]: 0.22 ± 0.03
- IL-6 [5, 7]: 0.28 ± 0.02
- IL-10 [5, 7]: 0.103 ± 0.02
- IL-15 [5, 7]: 0.14 ± 0.02
- LEPTIN [5, 7]: 0.50 ± 0.09
- MCP-1 [5, 7]: 0.13 ± 0.02
- MIP-1 alpha [5, 7]: 0.07 ± 0.01
- Rantes (CCL5) [5, 7]: 0.17 ± 0.03
- SCF [5, 7]: 0.36 ± 0.06
- TNF-alpha [5, 7]: 0.19 ± 0.03
- VEGF [5, 7]: 0.22 ± 0.03
- concentration of MIP-1α ([5]; GWI rats, decreases not significant statistically): reduced the concentration of MIP-1α
- concentration of 16 cytokines between groups ([5]; naive, GWI + VEH and GWI rats receiving different doses): no significant differences
- FGF-beta Mean ± S.E.M. [5, 8]: 0.18 ± 0.03
- IFN-gamma Mean ± S.E.M. [5, 8]: 0.28 ± 0.03
- IL-1alpha Mean ± S.E.M. [5, 8]: 0.17 ± 0.01
- IL-1 beta Mean ± S.E.M. [5, 8]: 0.39 ± 0.06
- IL-5 Mean ± S.E.M. [5, 8]: 0.19 ± 0.04
- IL-6 Mean ± S.E.M. [5, 8]: 0.24 ± 0.03
- IL-10 Mean ± S.E.M. [5, 8]: 0.086 ± 0.01
- IL-15 Mean ± S.E.M. [5, 8]: 0.11 ± 0.02
- LEPTIN Mean ± S.E.M. [5, 8]: 0.43 ± 0.11
- MCP-1 Mean ± S.E.M. [5, 8]: 0.10 ± 0.02
- MIP-1 alpha Mean ± S.E.M. [5, 8]: 0.08 ± 0.02
- Rantes (CCL5) Mean ± S.E.M. [5, 8]: 0.18 ± 0.02
- SCF Mean ± S.E.M. [5, 8]: 0.32 ± 0.07
- TNF-alpha Mean ± S.E.M. [5, 8]: 0.18 ± 0.02
- VEGF Mean ± S.E.M. [5, 8]: 0.21 ± 0.03
